Measured values reported in ChEMBL document CHEMBL1124085, “Flavins as potential antimalarials. 1. 10-(Halophenyl)-3-methylflavins” (1988).
Values joined by “and” are separate entries in the source; they are usually repeats but may differ in a detail not shown here. Equal entries are not always repeated.

Assays:
Type in all cases: functional
Mus musculus [1] = assay: Parenteral antimalarial activity against Plasmodium vinckei in mice (Mus musculus) measured as % cured and increase in MST (days) at 30 mg/kg dose
Mus musculus [2] = assay: Parenteral antimalarial activity against Plasmodium vinckei vinckei in mice (Mus musculus) measured as % cured and increase in MST (days) at 15 mg/kg dose
Mus musculus [3] = assay: Parenteral antimalarial activity against Plasmodium vinckei in mice (Mus musculus) measured as % cured and increase in MST (days) at 20 mg/kg dose
Mus musculus [4] = assay: Parenteral antimalarial activity against Plasmodium vinckei in mice (Mus musculus) measured as % cured and increase in MST (days) at 25 mg/kg dose
Mus musculus [5] = assay: Oral antimalarial activity against Plasmodium vinckei vinckei in mice (Mus musculus) measured as % cured and increase in MST (days) at 50 mg/kg dose
Mus musculus [6] = assay: Oral antimalarial activity against Plasmodium vinckei in mice (Mus musculus) measured as % cured and increase in MST (days) at 75 mg/kg dose
Mus musculus [7] = assay: Oral antimalarial activity against Plasmodium vinckei vinckei in mice (Mus musculus) measured as % cured and increase in MST (days) at 100 mg/kg dose
Mus musculus [8] = assay: Oral antimalarial activity against Plasmodium vinckei vinckei in mice (Mus musculus) measured as % cured and increase in MST (days) at 150 mg/kg dose
Mus musculus [9] = assay: Parenteral antimalarial activity against Plasmodium vinckei in mice (Mus musculus) measured as increase in mean survival time at 20 mg/kg dose
Mus musculus [10] = assay: Parenteral antimalarial activity against Plasmodium vinckei vinckei in mice (Mus musculus) measured as increase in mean survival time at 25 mg/kg dose
Mus musculus [11] = assay: Parenteral antimalarial activity against Plasmodium vinckei in mice (Mus musculus) measured as increase in mean survival time at 30 mg/kg dose
Mus musculus [12] = assay: Parenteral antimalarial activity against Plasmodium vinckei in mice (Mus musculus) measured as increase in mean survival time at 15 mg/kg dose
Mus musculus [13] = assay: Oral antimalarial activity against Plasmodium vinckei in mice (Mus musculus) measured as increase in mean survival time at 100 mg/kg dose
Mus musculus [14] = assay: Oral antimalarial activity against Plasmodium vinckei in mice (Mus musculus) measured as increase in mean survival time at 150 mg/kg dose
Mus musculus [15] = assay: Oral antimalarial activity against Plasmodium vinckei vinckei in mice (Mus musculus) measured as increase in mean survival time at 50 mg/kg dose
Mus musculus [16] = assay: Oral antimalarial activity against Plasmodium vinckei vinckei in mice (Mus musculus) measured as increase in mean survival time at 75 mg/kg dose
Mus musculus [17] = assay: Parenteral antimalarial activity against Plasmodium vinckei vinckei in mice (Mus musculus) measured as % cured and increase in MST (days) at 25 mg/kg dose.
Mus musculus [18] = assay: Parenteral antimalarial activity against Plasmodium vinckei vinckei in mice (Mus musculus) measured as % cured and increase in MST (days) at 30 mg/kg dose.
Mus musculus [19] = assay: Parenteral antimalarial activity against Plasmodium vinckei in mice (Mus musculus) measured as % cured and increase in MST (days) at 15 mg/kg dose.
Mus musculus [20] = assay: Parenteral antimalarial activity against Plasmodium vinckei vinckei in mice (Mus musculus) measured as % cured and increase in MST (days) at 20 mg/kg dose.
Mus musculus [21] = assay: Oral antimalarial activity against Plasmodium vinckei in mice (Mus musculus) measured as % cured and increase in MST (days) at 25 mg/kg dose.
Mus musculus [22] = assay: Oral antimalarial activity against Plasmodium vinckei in mice (Mus musculus) measured as % cured and increase in MST (days) at 50 mg/kg dose.
Mus musculus [23] = assay: Oral antimalarial activity against Plasmodium vinckei in mice (Mus musculus) measured as % cured and increase in MST (days) at 75 mg/kg dose.
Mus musculus [24] = assay: Parenteral antimalarial activity against Plasmodium vinckei vinckei in mice (Mus musculus) measured as % cured and increase in MST (days) at 10 mg/kg dose.
Mus musculus [25] = assay: Oral antimalarial activity against Plasmodium vinckei vinckei in mice (Mus musculus) measured as % cured and increase in MST (days) at 100 mg/kg dose.
Mus musculus [26] = assay: Oral antimalarial activity against Plasmodium vinckei vinckei in mice (Mus musculus) measured as % cured and increase in MST (days) at 150 mg/kg dose.
Mus musculus [27] = assay: Parenteral antimalarial activity against Plasmodium vinckei vinckei in mice (Mus musculus) measured as increase in mean survival time at 20 mg/kg dose.
Mus musculus [28] = assay: Parenteral antimalarial activity against Plasmodium vinckei vinckei in mice (Mus musculus) measured as increase in mean survival time at 25 mg/kg dose.
Mus musculus [29] = assay: Parenteral antimalarial activity against Plasmodium vinckei vinckei in mice (Mus musculus) measured as increase in mean survival time at 30 mg/kg dose.
Mus musculus [30] = assay: Parenteral antimalarial activity against Plasmodium vinckei in mice (Mus musculus) measured as increase in mean survival time at 10 mg/kg dose.
Mus musculus [31] = assay: Parenteral antimalarial activity against Plasmodium vinckei in mice (Mus musculus) measured as increase in mean survival time at 15 mg/kg dose.
Mus musculus [32] = assay: Oral antimalarial activity against Plasmodium vinckei vinckei in mice (Mus musculus) measured as increase in mean survival time at 100 mg/kg dose.
Mus musculus [33] = assay: Oral antimalarial activity against Plasmodium vinckei in mice (Mus musculus) measured as increase in mean survival time at 150 mg/kg dose.
Mus musculus [34] = assay: Oral antimalarial activity against Plasmodium vinckei in mice (Mus musculus) measured as increase in mean survival time at 25 mg/kg dose
Mus musculus [35] = assay: Oral antimalarial activity against Plasmodium vinckei vinckei in mice (Mus musculus) measured as increase in mean survival time at 50 mg/kg dose.
Mus musculus [36] = assay: Oral antimalarial activity against Plasmodium vinckei vinckei in mice (Mus musculus) measured as increase in mean survival time at 75 mg/kg dose.
Mus musculus [37] = assay: Oral antimalarial activity against Plasmodium vinckei in mice (Mus musculus) measured as % cured and increase in MST (days) at 25 mg/kg dose
Mus musculus [38] = assay: Parenteral antimalarial activity against Plasmodium vinckei in mice (Mus musculus) measured as % cured and increase in MST (days) at 10 mg/kg dose
Mus musculus [39] = assay: Parenteral antimalarial activity against Plasmodium vinckei in mice (Mus musculus) measured as increase in mean survival time at 10 mg/kg dose
Mus musculus [40] = assay: Oral antimalarial activity against Plasmodium vinckei in mice (Mus musculus) measured as increase in mean survival time at 25 mg/kg dose.

| Structure (SMILES) | Cured (Mus musculus [1]) | Cured (Mus musculus [2]) | Cured (Mus musculus [3]) | Cured (Mus musculus [4]) | Cured (Mus musculus [5]) | Cured (Mus musculus [6]) | Cured (Mus musculus [7]) | Cured (Mus musculus [8]) | MST (Mus musculus [9]) | MST (Mus musculus [10]) | MST (Mus musculus [11]) | MST (Mus musculus [12]) | MST (Mus musculus [13]) | MST (Mus musculus [14]) | MST (Mus musculus [15]) | MST (Mus musculus [16]) | Cured (Mus musculus [17]) | Cured (Mus musculus [18]) | MST (Mus musculus [34]) | Cured (Mus musculus [37]) | other results |
| --- | --- | --- | --- | --- | --- | --- | --- | --- | --- | --- | --- | --- | --- | --- | --- | --- | --- | --- | --- | --- | --- |
| Cn1c(=O)nc2n(-c3cccc(Cl)c3)c3ccccc3nc-2c1=O | 0% | 0% | 0% | 0% | 0% | 20% | 0% | 60% | 0.2 days | 0 days | 0 days | 0 days | 1.2 days | 2.5 days | 0 days | 4.3 days |  |  |  |  |  |
| Cn1c(=O)nc2n(-c3cccc(F)c3)c3ccccc3nc-2c1=O |  |  |  |  |  |  |  |  |  |  |  |  |  |  |  |  | 0% | 0% | 0 days |  | Cured (Mus musculus [19]): 0%; Cured (Mus musculus [20]): 40%; Cured (Mus musculus [21]): 40%; Cured (Mus musculus [22]): 40%; Cured (Mus musculus [23]): 20%; Cured (Mus musculus [24]): 0%; Cured (Mus musculus [25]): 80%; Cured (Mus musculus [26]): 40%; MST (Mus musculus [27]): 1.7 days; MST (Mus musculus [28]): 2 days; MST (Mus musculus [29]): 2.2 days; MST (Mus musculus [30]): 0 days; MST (Mus musculus [31]): 0.2 days; MST (Mus musculus [32]): 0 days; MST (Mus musculus [33]): 0 days; MST (Mus musculus [35]): 0 days; MST (Mus musculus [36]): 2.5 days |
| Cn1c(=O)nc2n(-c3ccc(Br)cc3)c3ccccc3nc-2c1=O | 40% | 100% | 100% | 60% | 100% | 100% | 100% | 100% |  | 14 days | 13 days |  |  |  |  |  |  |  | 3.5 days | 60% | Cured (Mus musculus [38]): 80%; MST (Mus musculus [39]): 2 days |
| Cn1c(=O)nc2n(-c3ccc(Cl)cc3Cl)c3ccccc3nc-2c1=O |  |  |  |  |  |  |  |  |  |  |  |  |  |  |  |  | 0% | 0% |  |  | Cured (Mus musculus [19]): 0%; Cured (Mus musculus [20]): 0%; Cured (Mus musculus [21]): 0%; Cured (Mus musculus [22]): 0%; Cured (Mus musculus [23]): 40%; Cured (Mus musculus [24]): 0%; Cured (Mus musculus [25]): 80%; Cured (Mus musculus [26]): 60%; MST (Mus musculus [27]): 0 days; MST (Mus musculus [28]): -1.2 days; MST (Mus musculus [29]): -1 days; MST (Mus musculus [30]): 1.7 days; MST (Mus musculus [31]): 0.5 days; MST (Mus musculus [32]): 1.5 days; MST (Mus musculus [33]): 1.5 days; MST (Mus musculus [40]): 0 days; MST (Mus musculus [35]): 1.3 days; MST (Mus musculus [36]): 1 days |
| Cc1cc(Cl)ccc1-n1c2nc(=O)n(C)c(=O)c-2nc2ccccc21 |  |  |  |  |  |  |  |  |  |  |  |  |  |  |  |  | 0% | 0% |  |  | Cured (Mus musculus [19]): 0%; Cured (Mus musculus [20]): 0%; Cured (Mus musculus [21]): 0%; Cured (Mus musculus [22]): 80%; Cured (Mus musculus [23]): 40%; Cured (Mus musculus [25]): 60%; Cured (Mus musculus [26]): 40%; MST (Mus musculus [27]): 1.2 days; MST (Mus musculus [28]): -1.4 days; MST (Mus musculus [29]): -2 days; MST (Mus musculus [31]): 1.2 days; MST (Mus musculus [32]): 2 days; MST (Mus musculus [33]): 1.5 days; MST (Mus musculus [40]): 0.5 days; MST (Mus musculus [35]): 1.5 days; MST (Mus musculus [36]): 3.2 days |
| Cn1c(=O)nc2n(-c3cccc(Br)c3)c3ccccc3nc-2c1=O | 60% | 0% | 20% | 60% | 20% | 40% | 60% | 60% | 1.4 days | 3 days | 1 days | 1.3 days | 1.5 days | 1 days |  | 1.5 days |  |  |  | 0% | MST (Mus musculus [34]; 25 mg/kg): 1 days and 2 days |
| Cn1c(=O)nc2n(-c3ccc(Cl)cc3)c3ccccc3nc-2c1=O |  | 95% |  |  | 75% | 85% | 90% | 90% |  |  |  | 1 days | 2.7 days | 2.7 days | 1.4 days | 1 days |  |  | 2.4 days | 45% | Cured (Mus musculus [3]; 20 mg/kg): 100% and 90%; Cured (Mus musculus [38]): 60%; MST (Mus musculus [39]): 1.5 days |
| Cn1c(=O)nc2n(-c3ccc(F)cc3)c3ccccc3nc-2c1=O | 0% | 0% | 20% | 0% | 0% | 0% | 0% | 20% | 0.5 days | 0.8 days | 0.2 days | 0.8 days | 1 days | 2.3 days | 0.8 days | 0.6 days |  |  | 0 days | 0% | Cured (Mus musculus [38]): 0%; MST (Mus musculus [39]): 0 days |
